Results as given in patent publication US7592347B2, “Piperazine derivates and their use for the treatment of neurological and psychiatric diseases” (Glaxo Group Limited, priority 2003, dated 2009).
Where a name gives a salt, the structure may show the parent alone.

What follows are molecules tested against T1, histamine H3 receptor (Homo sapiens, UniProt Q9Y5N1) (assay: Histamine H3 functional antagonist assay ([35S]GTPγS SPA, membranes of CHO K1 cells expressing human H3)). Details: functional antagonism of histamine (0.3 μM) stimulated [35S]GTPγS binding, membranes of CHO K1 cells with human histamine H3.
T1 construct: expressed in transfected cells; host or cells: CHO K1 cells carrying pSwitch, transfected with pGeneH3 and induced with mifepristone; clone 3H3; membranes
T1 sequence (Q9Y5N1 whole entry): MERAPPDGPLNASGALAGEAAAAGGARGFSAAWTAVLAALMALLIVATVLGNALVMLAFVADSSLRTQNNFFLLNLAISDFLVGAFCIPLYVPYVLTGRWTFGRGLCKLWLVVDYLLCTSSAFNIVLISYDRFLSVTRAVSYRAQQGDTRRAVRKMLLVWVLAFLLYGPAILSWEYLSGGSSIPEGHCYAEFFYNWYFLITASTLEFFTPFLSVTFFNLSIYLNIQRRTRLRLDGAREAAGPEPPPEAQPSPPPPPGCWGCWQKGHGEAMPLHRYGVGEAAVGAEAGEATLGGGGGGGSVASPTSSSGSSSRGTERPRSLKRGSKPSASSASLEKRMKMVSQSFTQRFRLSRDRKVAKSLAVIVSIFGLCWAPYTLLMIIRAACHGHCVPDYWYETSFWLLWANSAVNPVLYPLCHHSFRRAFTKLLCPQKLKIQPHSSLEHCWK
Assay type: biochemical
Experimental: A membrane preparation containing histamine H3 receptors may be prepared in accordance with the following procedures:
Ligated DNA was transformed into competent DH5α E. coli host bacterial cells and plated onto Luria Broth (LB) agar containing Zeocin™ (an antibiotic which allows the selection of cells expressing the sh ble gene which is present on pGene and pSwitch) at 50 μg ml^−1. Colonies containing the re-ligated plasmid were identified by restriction analysis. DNA for transfection into mammalian cells was prepared from 250 ml cultures of the host bacterium containing the pGeneH3 plasmid and isolated using a DNA preparation kit (Qiagen Midi-Prep) as per manufacturers guidelines (Qiagen).
CHO K1 cells previously transfected with the pSwitch regulatory plasmid (InVitrogen) were seeded at 2×10e6 cells per T75 flask in Complete Medium, containing Hams F12 (GIBCOBRL, Life Technologies) medium supplemented with 10% v/v dialysed foetal bovine serum, L-glutamine, and hygromycin (100 μg ml^−1), 24 hours prior to use. Plasmid DNA was transfected into the cells using Lipofectamine plus according to the manufacturers guidelines (InVitrogen). 48 hours post transfection cells were placed into complete medium supplemented with 500 μg ml^−1 Zeocin™.
10-14 days post selection 10 nM Mifepristone (InVitrogen), was added to the culture medium to induce the expression of the receptor. […] Approximately 1×10e7 cells were examined for receptor expression by staining with a rabbit polyclonal antibody, 4a, raised against the N-terminal domain of the histamine H3 receptor, incubated on ice for 60 minutes, followed by two washes in sorting medium. […] Following two further washes with Sorting Medium, cells were filtered through a 50 μm Filcon™ (BD Biosciences) and then analysed on a FACS Vantage SE Flow Cytometer fitted with an Automatic Cell Deposition Unit. […] Positively stained cells were sorted as single cells into 96-well plates, containing Complete Medium containing 500 μg ml^−1 Zeocin™ and allowed to expand before reanalysis for receptor expression via antibody and ligand binding studies.
All steps of the protocol are carried out at 4° C. and with pre-cooled reagents. The cell pellet is resuspended in 10 volumes of buffer A2 containing 50 mM N-2-hydroxyethylpiperazine-N′-2-ethanesulfonic acid (HEPES)(pH 7.40) supplemented with 10e−4M leupeptin (acetyl-leucyl-leucyl-arginal; Sigma L2884), 25 μg/ml bacitracin (Sigma B0125), 1 mM ethylenediamine tetra-acetic acid (EDTA), 1 mM phenylmethylsulfonyl fluoride (PMSF) and 2×10e−6M pepstain A (Sigma). The cells are then homogenised by 2×15 second bursts in a 1 litre glass Waring blender, followed by centrifugation at 500 g for 20 minutes. The supernatant is then spun at 48,000 g.for 30 minutes. The pellet is resuspended in 4 volumes of buffer A2 by vortexing for 5 seconds, followed by homogenisation in a Dounce homogeniser (10-15 strokes). At this point the preparation is aliquoted into polypropylene tubes and stored at −70° C. […]
The plate is then incubated on a shaker at room temperature for 30 minutes followed by centrifugation for 5 minutes at 1500 rpm. The plate is read between 3 and 6 hours after completion of centrifuge run in a Wallac Microbeta counter on a 1 minute normalised tritium count protocol. Data is analysed using a 4-parameter logistic equation. Basal activity used as minimum i.e. histamine not added to well.
`CC(C)N1CCN(C(=O)C2CCN(c3ccc(C#N)cn3)CC2)CC1` [Example E1, 1-Isopropyl-4-[1-(5-cyano-pyridin-2-yl)-piperidine4-carbonyl]-piperazine hydrochloride] showed a Kb of under 3.16 nM.
In the case of `CC(C)N1CCN(C(=O)C2CCN(c3ccc(C#N)cc3)CC2)CC1` [Example E2, 1-Isopropyl-4-[1-(4-cyanophenyl)-piperidine-4-carbonyl]-piperazine hydrochloride], the Kb was under 1 nM.
In the case of `COC(=O)c1cnc(N2CCC(C(=O)N3CCN(C(C)C)CC3)CC2)cc1C(F)(F)F` [Example E4, 1-Isopropyl-4-[1-(5-methoxycarbonyl-4-trifluoromethylpyridin-2-yl)-piperidine-4-carbonyl]-piperazine], the Kb was under 3.16 nM.
For `CCOC(=O)c1ccc(N2CCC(C(=O)N3CCN(C(C)C)CC3)CC2)cc1` [Example E8, 1-Isopropyl-4-[1-(4ethoxycarbonylphenyl)-piperidine-4-carbonyl]-piperazine], the Kb was under 3.16 nM.
Work on `N#Cc1ccc(N2CCC(C(=O)N3CCN(C4CCC4)CC3)CC2)cc1` [Example E9, 1-Cyclobutyl-4-[1-(4-cyanophenyl)-piperidine-4-carbonyl]-piperazine] yielded a Kb of under 3.16 nM.
Work on `N#Cc1ccc(N2CCC(C(=O)N3CCN(C4CCC4)CC3)CC2)cc1F` [Example E10, 1-Cyclobutyl-4-[1-(4-cyano-3-fluorophenyl)-piperidine-4-carbonyl]-piperazine] yielded a Kb of under 3.16 nM.
`N#Cc1cc(F)c(N2CCC(C(=O)N3CCN(C4CCC4)CC3)CC2)c(F)c1` [Example E11, 1-Cyclobutyl4-[1-(4-cyano-2,6-difluorophenyl)-piperidine-4-carbonyl]-piperazine] showed a Kb of under 3.16 nM.
Work on `N#Cc1ccc(N2CCC(C(=O)N3CCN(C4CCC4)CC3)CC2)cc1C(F)(F)F` [Example E12, 1-Cyclobutyl-4-[1-(4-cyano-3-trifluoromethylphenyl)-piperidine-4-carbonyl]-piperazine] yielded a Kb of under 3.16 nM.
`N#Cc1ccc(N2CCC(C(=O)N3CCN(C4CCC4)CC3)CC2)c2ccccc12` [Example E13, 1-Cyclobutyl-4-[1-(4-cyano-naphthalen-1-yl)-piperidine-4-carbonyl]-piperazine] showed a Kb of under 3.16 nM.
Molecule `N#Cc1ccc(N2CCC(C(=O)N3CCN(C4CCC4)CC3)CC2)nc1` [Example E14, 1-Cyclobutyl-4-[1-(5-cyanopyridin-2-yl)-piperidine-4-carbonyl]-piperazine] has a Kb of under 3.16 nM.
With `O=C(C1CCN(c2cccc(C(F)(F)F)n2)CC1)N1CCN(C2CCC2)CC1` [Example E15, 1-Cyclobutyl-4-[1-(6-trifluoromethylpyridin-2-yl)-piperidine-4-carbonyl]-piperazine] the Kb was under 3.16 nM.
In the case of `O=C(C1CCN(c2ccc(C(F)(F)F)cn2)CC1)N1CCN(C2CCC2)CC1` [Example E16, 1-Cyclobutyl-4-[1-(5-trifluoromethylpyridin-2-yl)-piperidine-4-carbonyl]-piperazine], the Kb was under 3.16 nM.
In the case of `O=C(C1CCN(c2ncc(C(F)(F)F)cc2Cl)CC1)N1CCN(C2CCC2)CC1` [Example E17, 1-Cyclobutyl-4-[1-(3-chloro-5-trifluoromethylpyridin-2-yl)-piperidine-4-carbonyl]-piperazine], the Kb was under 3.16 nM.
`CC(C)N1CCN(C(=O)C2CCN(c3ncc(-c4ccc(S(C)(=O)=O)cc4)cn3)CC2)CC1` [Example E25, 1-Isopropyl-4-{1-[5-(4-methylsulfonylphenyl)-pyrimidin-2-yl]-piperidine-4-carbonyl}-piperazine] was tested, and the Kb was under 3.16 nM.
Molecule `CC(C)N1CCN(C(=O)C2CCN(c3ccc(C(=O)N4CCOCC4)cc3)CC2)CC1` [Example E30, 1-Isopropyl-4-{1-[4-(morpholino-carbonyl)-phenyl]-piperidine-4-carbonyl}-piperazine hydrochloride] has a Kb of under 3.16 nM.
`N#Cc1ccc(N2CCC(C(=O)N3CCN(C4CCCC4)CC3)CC2)cc1` [Example E31, 1-Cyclopentyl-4-[1-(4cyano-phenyl)-piperidine-4-carbonyl]-piperazine hydrochloride] showed a Kb of under 3.16 nM.
For `C[C@@H]1CN(C(=O)C2CCN(c3ccc(C#N)cc3)CC2)C[C@H](C)N1C1CCC1` [Example E33, (2R,6S)-1-Cyclobutyl-4-[1-(4-cyanophenyl)-piperidine-4-carbonyl]-2,6-dimethylpiperazine hydrochloride], the Kb was under 3.16 nM.
For `N#Cc1ccc(N2CCC(C(=O)N3CCCN(C4CCC4)CC3)CC2)cc1` [Example E36, 1-Cyclobutyl-4-[1-(4-cyanophenyl)-piperidine4-carbonyl]-[1,4]-diazepane], the Kb was under 1 nM.
`N#Cc1ccc(N2CCC(C(=O)N3CCCN(C4CCC4)CC3)CC2)nc1` [Example E37, 1-Cyclobutyl-4-[1-(5-cyanopyridin-2-yl)-piperidine4-carbonyl]-[1,4]-diazepane] gave a Kb of under 1 nM.
In the case of `CC(C)N1CCCN(C(=O)C2CCN(c3ccc(C#N)cc3)CC2)CC1` [Example E38, 1-Isopropyl-4-[1-(4-cyanophenyl)-piperidine4-carbonyl]-[1,4]-diazepane], the Kb was under 1 nM.
With `CC(C)N1CCCN(C(=O)C2CCN(c3cc(F)c(C#N)cc3F)CC2)CC1` [Example E39, 1-Isopropyl-4-[1-(4-cyano-2,5-difluorophenyl)-piperidine-4-carbonyl]-[1,4]-diazepane] the Kb was under 3.16 nM.
With `CC(C)N1CCCN(C(=O)C2CCN(c3ccc(C#N)c(Cl)c3)CC2)CC1` [Example E40, 1-Isopropyl-4-[1-(4-cyano-3-chlorophenyl)-piperidine-4-carbonyl]-[1,4]-diazepane] the Kb was under 3.16 nM.
`CC(C)N1CCCN(C(=O)C2CCN(c3ccc(C#N)c(F)c3)CC2)CC1` [Example E41, 1-Isopropyl-4-[1-(4-cyano-3-fluoro-phenyl)-piperidine4-carbonyl]-[1,4]-diazepane] was tested, and the Kb was under 3.16 nM.
Molecule `CC(C)N1CCCN(C(=O)C2CCN(c3c(F)cc(C#N)cc3F)CC2)CC1` [Example E42, 1-Isopropyl-4-[1-(4-cyano-2,6-difluoro-phenyl)-piperidine-4-carbonyl]-[1,4]-diazepane] has a Kb of under 3.16 nM.
With `CC(C)N1CCCN(C(=O)C2CCN(c3ccc(C#N)cc3F)CC2)CC1` [Example E43, 1-Isopropyl-4-[1-(4-cyano-2-fluoro-phenyl)-piperidine-4-carbonyl]-[1,4]-diazepane] the Kb was under 3.16 nM.
Work on `CC(C)N1CCCN(C(=O)C2CCN(c3ccc(C#N)c(C(F)(F)F)c3)CC2)CC1` [Example E44, 1-Isopropyl4-[1-(4-cyano-3-trifluoromethyl-phenyl)-piperidine-4-carbonyl]-[1,4]-diazepane] yielded a Kb of under 3.16 nM.
`CC(C)N1CCCN(C(=O)C2CCN(c3ccc(C(F)(F)F)cc3)CC2)CC1` [Example E45, 1-Isopropyl-4-[1-(4-trifluoromethyl-phenyl)-piperidine-4-carbonyl]-[1,4]-diazepane] showed a Kb of under 3.16 nM.
For `CC(C)N1CCCN(C(=O)C2CCN(c3ccc(C#N)c4ccccc34)CC2)CC1` [Example E46, 1-Isopropyl-4-[1-(4-cyano-naphthalen-1-yl)-piperidine-4-carbonyl]-[1,4]-diazepane], the Kb was under 3.16 nM.
`CC(C)N1CCCN(C(=O)C2CCN(c3ccc(Cl)c(Cl)c3)CC2)CC1` [Example E54, 1-Isopropyl-4-[1-(3,4-dichlorophenyl)-piperidine-4-carbonyl]-[1,4]-diazepane] gave a Kb of under 3.16 nM.
`CC(C)N1CCCN(C(=O)C2CCN(c3ccc(OC(F)(F)F)cc3)CC2)CC1` [Example E56, 1-Isopropyl-4-[1-(4-trifluoromethoxyphenyl)-piperidine4-carbonyl]-[1,4]-diazepane] showed a Kb of under 3.16 nM.
